# From ChEMBL document CHEMBL1155749, “Five new polyoxygenated cholestane bisdesmosides from the bulbs of Galtonia candicans” (J Nat Prod, 2001)
# Tested on: HL-60
# Test: Cytotoxicity against human HL60 cells after 72 hrs by MTT assay
# Assay type: functional, cell-based
# Settings: HL-60, 72 h
row,Compound,IC50 [µg/mL]
1,CC(=O)O[C@@H]1[C@@H](O)[C@H](C)O[C@@H](O[C@H]2C[C@H]3[C@@H]4CC=C5C[C@@H](O[C@@H]6O[C@H](CO)[C@@H](O)[C@H](O)[C@H]6O)CC[C@]5(C)[C@H]4CC[C@]3(C)[C@H]2[C@H](C)[C@@H](O)CC=C(C)C)[C@@H]1O,6.8
2,COc1cc([C@@H]2c3cc4c(cc3[C@@H](O[C@@H]3O[C@@H]5CO[C@@H](C)O[C@H]5[C@H](O)[C@H]3O)[C@H]3COC(=O)[C@H]23)OCO4)cc(OC)c1O [ETOPOSIDE],0.25
